A short description of data set [1]: Dissolving DEET with the composition of the invention (Example 3, general procedure). The class given is physicochemical. Particulars: composition of Table 3. On the procedure:
A general procedure to prepare the solution of an active compound in the composition of the invention is applied: • Deionized water was brought in a beaker equipped with a stirring bar and placed on a stirring plate. The cosolvent was added to the solution whilst stirring. Subsequently, the surfactant was added, and before the surfactant was dissolved also icaridin was added. Stirring is stopped when all components of the composition are dissolved.
The same test was applied to determine if the composition of the invention is also able to dissolve alternative water-insoluble compounds. In this experiment icaridin was switched for DEET and the general procedure was applied.

A short description of data set [2]: Dissolving icaridin in water with individual components only (Example 2, visual result). The following applies: icaridin 5.0 wt.%. The class given is physicochemical. The procedure: In this experiment, it is tested if the combination of the cosolvent and the surfactant is required to dissolve icaridin or if individual components can also dissolve icaridin in water.
Deionized water was brought in a beaker equipped with a stirring bar and placed on a stirring plate. The (when applicable) cosolvent was added to the solution whilst stirring. Subsequently (when applicable) the surfactant was added, before this dissolved also (when applicable) icaridin was added. Stirring is stopped when everything is dissolved.

We go through 2 compounds from patent publication US20260026506A1, “COMPOSITION FOR DISSOLVING AN OILY COMPOUND IN WATER” (AFFIX LABS OY, priority 2022, published 2026).

In the case of `CCN(CC)C(=O)c1cccc(C)c1` [DEET, N,N-diethyl-m-toluamide], the “Amount dissolved in water by the composition of the invention” value in data set [1] came to 5 wt. %.
Turning to `CCC(C)OC(=O)N1CCCCC1CCO` (centres unmarked) [icaridin], the “Solubility of icaridin in water (conclusion from Table 2)” value in data set [2] is “only soluble in water using the combination cosolvent and surfactants”.
